Test results reported in patent publication US5760036A, “Aminediol protease inhibitors” (E. R. Squibb & Sons, Inc., priority 1995, dated 1998).
pIC50: −log10 of the molar value. Structures can show the parent of a compound that is named as a salt. Where two headings read alike, the source gives them in different places.

Key:
[1] = test system: RF strain of HIV (CEM-SS cells); assay: Cell Culture Anti-HIV Activity (cell viability, formazan); format: cell-based; details: Human immunodeficiency virus 1, CEM-SS, 144 h; for pIC50: CEM-SS cells, RF strain of HIV, multiplicity of infection 0.04, 6 days at 37° C., 450 nm, read-out: HIV (CEM Cells) IC50
Protocol: The antiviral activity of aminediol inhibitors of the present invention was evaluated by a microculture method which determines the increase in cell viability of an infected culture when a drug is added. The assay depends on the metabolic reduction of tetrazolium reagent by viable cells to yield a soluble colored formazan product.
The assay was performed as follows: suspensions of CEM-SS cells (5000/well) were infected with the RF strain of HIV at a multiplicity of infection at 0.04 in a 96-well plate. The compounds of the present invention listed in the following Table 1, serially diluted in half-log fashion, were added to the infected and uninfected control cells. Untreated (infected and uninfected) cells were included as controls. Following incubation for 6 days at 37° C., viable cells in each well were quantitated by the visible light absorbance at 450 nm.
The IC50 was calculated as the concentration of drug that increased the formazan production in virally infected cells to 50% of that produced by uninfected cells in the absence of drug.

[2] = target: T1, HIV protease (Human immunodeficiency virus type 1 group M subtype B, UniProt P04585); assay: HIV Protease Assay; format: biochemical
T1 construct: and purified protease
Method in brief: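 Purified protease cleaved 450 μM octapeptide substrate in 50 mM sodium acetate pH 5.5 with 100 μg/ml BSA for 30 minutes at 37° C; product analyzed by reverse-phase HPLC at UV220 after H3PO4 quench. Inhibitors tested at final 10 μM with 4% DMSO.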

[3] = pH 5.5, 10 μM inhibitor, 4% DMSO, 450 μM substrate, pH 5.5, 30 minutes at 37° C., RP-HPLC, read-out: HIV Protease % Inhibition at 10 μM

Compound | pIC50 [1] | inhibition at 10 µM [2, 3] [%] | IC50 ([1]; read-out: HIV (CEM Cells) IC50 (μM)) [µM] | inhibition at 10 µM ([2]; pH 5.5, read-out: HIV Protease % Inhibition at 10 μM, 10 μM inhibitor, 4% DMSO, 450 μM substrate, pH 5.5, 30 minutes at 37° C., RP-HPLC) [%] | HIV Protease % Inhibition at 10 μM ([2]; 10 μM inhibitor, 4% DMSO, 450 μM substrate, pH 5.5, 30 minutes at 37° C., RP-HPLC) [%]
CC(C)(C)OC(=O)N[C@@H](Cc1ccccc1)[C@H](O)CNC[C@@H](O)[C@H](Cc1ccccc1)NC(=O)OC1CCCOC1 (stereo partly drawn) [Compound 318, [1S-(1R*,2S*)]-[Iminobis[2-hydroxy-1-(phenylmethyl)-3,1-propanediyl)]bis[carbamic acid], 1,1-dimethylethyl-3-tetrahydropyranyl ester] | 7.00 | 100 | – | – | –
CC(C)(C)OC(=O)N[C@@H](Cc1ccccc1)[C@H](O)CNC[C@@H](O)[C@H](Cc1ccc(OCCN2CCOCC2)cc1)NC(=O)OC(C)(C)C [Compound 175, [1S-[1R*,2S*(2S*,3R*)]]-[3-[[3-[[(1,1-Dimethylethoxy)carbonyl]amino]-2-hydroxy-4-(4-[2-(4-morpholinyl)ethoxyl-phenyl]butyl]amino]-2-hydroxy-1-(phenylmethyl)propyl]carbamic acid, 1,1-dimethylethyl ester] | 7.52 | 99 | – | – | –
CC(C)(C)OC(=O)N[C@@H](Cc1ccccc1)[C@H](O)CNC[C@@H](O)[C@H](Cc1c[nH]c2ccccc12)NC(=O)OCc1ccccc1 [Compound 22, [1S-[1R*,2S*(2S*,3R*)]]-[3-[[3-[[(1,1-Dimethylethoxy)carbonyl]amino]-2-hydroxy-4-ehenylbutyl]amino]-2-hydroxy-1-[(1H-indol-3-yl)methyl]propyl]carbamic acid, phenylmethyl ester] | < 5.74 | 90 | – | – | –
CC(C)[C@H](NC(=O)OCc1ccccc1)C(=O)N[C@@H](Cc1ccccc1)[C@H](O)CNC[C@@H](O)[C@H](Cc1ccccc1)NC(=O)[C@H](CC(N)=O)NC(=O)OCc1ccccc1 [Compound 112, [S-[1R*,2S*(2S*,3R*)]]-N-[2-Hydroxy-3-[[2-hydroxy-4-phenyl-3-[[N-[(phenyl-methoxy)carbonyl]-L-valyl]amino]butyl]amino]-1-(phenylmethyl)propyl]-N^2-[(phenylmethoxy)-carbonyl]-L-asparaginamide, monohydrochloride] | < 5.07 | 100 | – | – | –
CC(C)[C@H](NC(=O)N(C)Cc1nc2ccccc2[nH]1)C(=O)N[C@@H](Cc1ccccc1)[C@H](O)CNC[C@@H](O)[C@H](Cc1ccccc1)NC(=O)OC(C)(C)C (relative stereo) [Compound 245, [1R*,2S*(2S*,3R*)]-N-[3-[[3-[[(1,1-Dimethylethoxy)carbonyl]amino]-2-hydroxy-4-phenylbutyl]amino]-2-hydroxy-1-(phenylmethyl)propyl]-N^2-[[(1H-benzimidazol-2-yl-methyl)methylamino]carbonyl]-L-valinamide] | 5.74 | 100 | – | – | –
CC(C)(C)OC(=O)N[C@@H](Cc1ccccc1)[C@H](O)CN(C[C@@H](O)[C@H](Cc1ccccc1)NC(=O)OC(C)(C)CO)C(=O)OCC[Si](C)(C)C [Compound 164, [R-(R*,S*)]-[[[(Trimethylsilyl)-ethoxy]carbonyl]iminobis[2-hydroxy-1-(phenylmethyl)-3,1-propanediyl]1biscarbamic acid, 1,1-di-methylethyl 2-hydroxy-1,1-dimethylethyl ester] | – | – | 0.04 | 99 | –
CC(C)(C)OC(=O)N[C@@H](Cc1ccccc1)[C@H](O)CNC[C@@H](O)[C@H](Cc1ccccc1)NC(=O)OCCO [Compound 241, [R-(R*,S*)]-[Iminobis[2-hydroxy-1-(phenylmethyl)-3,1-propanediyl)]biscarbamic acid, 1,1-dimethylethyl-2-hydroxyethyl ester] | 6.55 | 95 | – | – | –
COCCOc1ccc(C[C@H](NC(=O)OC(C)(C)C)[C@H](O)CNC[C@@H](O)[C@H](Cc2ccccc2)NC(=O)OC(C)(C)C)cc1 [Compound 224, [1S-[1R*,2S*(2S*,3R*)]]-[3-[[3-[[(1,1-Dimethylethoxy)carbonyl]amino]-2-hydroxy-4-[4-(2-methoxyethoxy)phenyl]butyl]amino]-2-hydroxy-1-(phenylmethyl)propyl]carbamic acid, 1,1-dimethylethyl ester] | 7.40 | 98 | – | – | –
CC(C)(C)OC(=O)N[C@@H](Cc1ccccc1)[C@H](O)CNC[C@@H](O)[C@H](Cc1ccccc1)NC(=O)C1(O)COCC1(C)C (single isomer, unassigned; isomer a) [Compound 364, [1S-[1R*,2S*(2S*,3R*)]]-[2-Hydroxy-3-[[tetrahydro-3-hydroxy-4,4-dimethyl-3-furanyl)carbonyl]amino]-4-phenylbutyl]amino]-1-(phenylmethyl)-propyl]carbamic acid, 1,1-dimethylethyl ester, Isomer A] | 6.66 | – | – | – | 98
O=C(N[C@@H](Cc1ccccc1)[C@H](O)CNC[C@@H](O)[C@H](Cc1ccccc1)NC(=O)O[C@H]1CCOC1)O[C@H]1CCOC1 [Compound 338, [1S-(1R*,2S*), (R*)]-[Iminobis[2-hydroxy-1-(phenylmethyl)-3,1-propanediyl]]bis[carbamic acid], bis(3-tetrahydrofuranyl)ester] | 6.03 | 99 | – | – | –
CC(C)(C)NC(=O)N[C@@H](Cc1ccccc1)[C@H](O)CNC[C@@H](O)[C@H](Cc1ccccc1)NC(=O)NC(C)(C)C [Compound 47, [R-(R*,S*)]-N,N"-[Iminobis[2-hydroxy-1-(phenylmethyl)-3,1-propanediyl]]-bis[N'-(1,1-dimethylethyl)urea]] | 5.96 | 81 | – | – | –
Cc1ccc(N(C)CCOc2ccc(C[C@H](NC(=O)OC(C)(C)C)[C@H](O)CNC[C@@H](O)[C@H](Cc3ccccc3)NC(=O)OC(C)(C)C)cc2)cc1 [Compound 217, [1S-[1R*,2S*(2S*,3R*)]]-[3-[[3-[[(1,1-Dimethylethoxy)carbonyl]amino]-2-hydroxy-4-[4-[2-methyl(4-methylphen-yl)amino]-ethoxyl]phenyl]butyl]amino]-2-hydroxy-1-(phenylmethyl) propyl]carbamic acid, 1,1-dimethylethyl ester] | 6.32 | 100 | – | – | –
O=C(N[C@@H](Cc1ccccc1)[C@H](O)CNC[C@@H](O)[C@H](Cc1ccccc1)NC(=O)c1ccccc1)c1ccccc1 [Compound 36, [S-(1R*,2S*)]-N,N'-[Iminobis[2-hydroxy-1-(phenylmethyl)-3,1-propanediyl]]bisbenzamide] | < 5.10 | 36 | – | – | –
CN(CC(=O)[C@H](Cc1ccccc1)NC(=O)OC(C)(C)C)C[C@H](O)[C@H](Cc1ccccc1)NC(=O)OC(C)(C)C [Compound 199, [1S-[1R*(2R*,3R*)]]-3-[[3[[-(1,1-Dimethylethoxy)carbonyl]-amino]-2-hydroxy-4-phenylbutyl]-methylamino]-2-oxo-1-(phenylmethyl)-propyl]carbamic acid, 1,1-dimethylethyl ester] | < 4.77 | 3 | – | – | –
CC(C)(C)OC(=O)N[C@@H](Cc1ccccc1)[C@H](O)CNC[C@@H](O)[C@H](CCc1ccccc1)NC(=O)OCc1ccccc1 [Compound 24, [1S-[1R*,2S*((2S*,3R*)]]-[3-[[3-[[(1,1-Dimethylethoxy)carbonyl]amino-2-hydroxy-4-phenylbutyl]amino]-2-hydroxy-1-(2-phenylethyl)propyl]carbamic acid, phenylmethyl ester] | 5.35 | 78 | – | – | –
CC(C)(C)OC(=O)N[C@@H](C/C=C/c1ccc(OCC(=O)N2CCOCC2)cc1)[C@H](O)CNC[C@@H](O)[C@H](Cc1ccccc1)NC(=O)OC(C)(C)C [Compound 276, [1S-[1R*,2S*(2S*,3R*)]]-[3-[[3-[[(1,1-Dimethylethoxy)carbonyl]amino]-2-hydroxy-6-[4-[2-(4-morpholinyl)-2-oxoethoxy]phenyl]-5-hexenyl]amino]-2-hydroxy-1-(phenylmethyl)propyl]carbamic acid, 1,1-dimethylethyl ester] | 6.89 | 97 | – | – | –
CC(C)(C)OC(=O)N[C@@H](Cc1ccccc1)[C@H](O)CNC[C@@H](O)[C@H](Cc1ccccc1)NC(=O)[C@@H](NC(=O)OCc1nc(-c2ccccc2)co1)C(C)(C)C [Compound 345, [S-(1R*,2S*(2S*,3R*)]]-[2,2-Dimethyl-1-[[[3-[[3-[[1,1-dimethylethoxy)-carbonyl]amino]-2-hydroxy-4-phenylbutyl]amino]-2-hydroxy-1-(phenylmethyl)propyl]amino]-carbonyl]propyl]carbamic acid, (4-phenyl-2-oxazolyl)methyl ester] | 6.48 | 99 | – | – | –
CC(C)(C)NC(=S)N[C@@H](Cc1ccccc1)[C@H](O)CNC[C@@H](O)[C@H](Cc1ccccc1)NC(=O)OC(C)(C)C [Compound 137, [1S-[1R*,2S*(2S*,3R*)]]-[3-[[3-[[[(1,1-Dimethylethyl)amino]thioxomethyl]amino]-2-hydroxy-4-phenylbutyl]amino]-2-hydroxy-1-(phenylmethyl))propyl]carbamic acid, 1,1-dimethylethyl ester] | < 5.59 | 92 | – | – | –
